Laboratory results taken from patent publication US8552013B2, “Heterocyclic compounds based on N6-substituted adenine, methods of their preparation, their use for preparation of drugs, cosmetic preparations and growth regulators, pharmaceutical preparations, cosmetic preparations and growth regulators containing these compounds” (USTAV Experimentalni Botaniky Akademie Ved Ceske Republiky, priority 2001, dated 2013).

Assays:
[1] = system: Triticum aestivum cv. Hereward leaf tips; experiment: Retention of chlorophyll in excised wheat leaf tips; type: in vivo; conditions: chlorophyll retention at the concentration with highest activity
Experimental: Seeds of winter wheat, Triticum aestivum cv. Hereward, were washed under running water for 24 hours and then sown on vermiculite soaked with Knop's solution. They were placed in the grown chamber at 25° C. with a 16/8 h light period at 50 μmol.m^−2.s^−1. After 7 days, the first leaf was fully developed and the second leaf had started to grow. A tip section of the first leaf, approximately 35 mm long, was removed from 5 seedlings and trimmed slightly to a combined weight of 100 mg. The basal ends of the five leaf tips were placed in the wells of a microtiter polystyrene plate containing 150 μl of a cytokinin solution each. The entire plate was inserted into a plastic box lined with paper tissues soaked in distilled water to prevent leaf sections from drying out. After a 96 h incubation in the dark at 25° C., the leaves were removed and chlorophyll extracted by heating at 80° C. for 10 min in 5 ml of 80% ethanol (v/v). The sample volume was then restored to 5 ml by the addition of 80% ethanol (v/v). The absorbency of the extract was recorded at 665 nm. In addition, chlorophyll extracts from fresh leaves and leaf tips incubated in deionised water were measured. From the obtained data, the concentration with highest activity was selected for each compound tested. Relative activity of the compound at this concentration was calculated (Tab. 6). The activity obtained for 10^−4 M 6-benzylaminopurine (BAP) was postulated as 100%. The values shown are means of five replicates and the whole experiment was repeated twice. The cytokinins to be tested were dissolved in dimethylsulfoxide (DMSO) and the solution brought up to 10^−3M with distilled water. This stock was further diluted in distilled water to concentrations ranging from 10^−8M to 10^−4M.

[2] = system: human diploid fibroblasts (HCA cells); experiment: Senescence, beta-galactosidase staining of human diploid fibroblasts; type: cell-based; conditions: for SENESCENT CELLS (%) HCA25: passage 25; for SENESCENT CELLS (%) HCA45: passage 45; for SENESCENT CELLS (%) HCA80: passage 80
Experimental: In this example, human diploid fibroblasts (HCA cells of various passage levels: passage 25—designated HCA25; passage 45—designated HCA45; passage 80—designated HCA80) were stained for β-galactosidase activity. The medium used for cell cultivation was removed, the cells were washed twice in […], and fixed in 2-3 ml of fixing solution comprised of a 2% formaldehyde and 0.2% glutaraldehyde in PBS. The cells were incubated at room temperature for 5 minutes, then washed twice with PBS. The cells were subsequently incubated at 37° C. (without CO2) for 1 to 16 hours in 2-3 ml of a solution comprising potassium ferricyanide (5 mM), potassium ferrocyanide (5 mM), MgCl2 (2 mM), X-gal (5-bromo-4-chloro-3-indolyl-β-D-galactopyranoside) (1 mg/ml), in citric/phosphate buffer, pH 6.0). […] In this experiment, senescent cells, but not other cells were stained blue due to the action of β-galactosidase on the substrate (FIG. 4).

[3] = system: tobacco callus Nicotiana tabacum L. cv. Wisconsin 38; experiment: Cytokinin-dependent tobacco callus growth; type: cell-based; conditions: fresh callus weight at the concentration with highest activity
Experimental: Cytokinin-dependent tobacco callus Nicotiana tabacum L. cv. Wisconsin 38 was maintained at 25° C. in darkness on modified Murashige-Skoog medium, containing per 1 liter: 4 μmol nicotinic acid, 2.4 μmol pyridoxine hydrochloride, 1.2 μmol thiamine, 26.6 μmol glycine, 1.37 μmol glutamine, 1.8 μmol myo-inositol, 30 g of sucrose, 8 g of agar, 5.37 μmol α-naphtylacetic acid (NAA) and 0.5 μmol benzylaminopurine (BAP). Subcultivation was carried out every three weeks. Fourteen days before the bioassay, the callus tissue was transferred to the media without 6-benzylaminopurine (BAP). Biological activity was determined from the increase in fresh callus weight after four weeks of cultivation. Five replicates were prepared for each cytokinin concentration and the entire test was repeated twice. From the obtained data, the concentration with highest activity was selected for each compound tested. Relative activity of the compound at this concentration was calculated (Tab. 6). The activity obtained for 10^−4 M 6-benzylaminopurine (BAP) was postulated as 100%. The cytokinins to be tested were dissolved in dimethylsulfoxide (DMSO) and the solution brought up to 10^−3M with distilled water. This stock was further diluted in the respective media used for the biotest to concentrations ranging from 10^−8M to 10^−4M.

[4] = system: Amaranthus caudatus cotyledon/hypocotyl explants; experiment: Amaranthus bioassay, betacyanin content; type: in vivo; conditions: betacyanin content at the concentration with highest activity
Experimental: Standard Amaranthus bioassay was performed with several modifications. The seeds of Amaranthus caudatus var. atropurpurea were surface-sterilised in 10% N-chlorobenzenesulfonamide (w/v) for 10 min and washed 5 times in deionized water. They were placed in 14 cm Petri dishes containing paper tissues saturated with deionized water. After 72 h of cultivation at 25° C. in darkness, the roots of the seedlings were cut off. The explants, consisting of two cotyledons and hypocotyls, were placed in 5 cm Petri dishes on two layers of filter paper soaked in 1 ml of incubation medium containing 10 μmol NA2HPO4-KH2PO4, pH 6.8, 5 μmol tyrosine and the cytokinin to be tested. There were 20 explants per dish. The procedure was carried out under a green safe light in a darkroom. After a 48 h of incubation at 25° C. in darkness, betacyanin was extracted by freezing the explants in 4 ml […] acetic acid. The concentration of betacyanin was determined by comparing the absorbance at 537 nm and 620 nm as follows: ΔA=[…] nm-A620 nm. From the obtained data, the concentration with highest activity was selected for each compound tested. Relative activity of the compound at this concentration was calculated (Tab. 6). […] The values shown in table 8 are means of five replicates and the entire test was repeated twice. The cytokinins to be tested were dissolved in dimethylsulfoxide (DMSO) and the solution brought up to 10^-3M with distilled water. This stock was further diluted in the respective media used for the biotest to concentrations ranging from 10^-8M to 10^-4M.

CSc1nc(NCc2cccc(O)c2)c2[nH]cnc2n1 [2-methylthio-6-(3-hydroxybenzylamino)purine]
Activity (%) [10^−4 mol · l^−1 BAP = 100%] [1]: 50.5 (±23.5) %

CC(=O)Oc1cccc(CNc2ncnc3nc[nH]c23)c1 [3-acetoxybenzylamino, 6-(3-acetoxybenzylamino)purine]
SENESCENT CELLS (%) HCA25 [2]: 4% | SENESCENT CELLS (%) HCA45 [2]: 6% | SENESCENT CELLS (%) HCA80 [2]: 27%

CC(=O)c1cccc(CNc2ncnc3nc[nH]c23)c1 [3-acetylbenzylamino, 6-(3-acetylbenzylamino)purine]
SENESCENT CELLS (%) HCA25 [2]: 5% | SENESCENT CELLS (%) HCA45 [2]: 5% | SENESCENT CELLS (%) HCA80 [2]: 28%

Nc1cc(CNc2ncnc3nc[nH]c23)ccc1Cl [3-amino-4-chlorobenzylamine, 6-(3-amino-4-chlorobenzylamino)purine]
SENESCENT CELLS (%) HCA25 [2]: 5% | SENESCENT CELLS (%) HCA45 [2]: 5% | SENESCENT CELLS (%) HCA80 [2]: 22%

O=C(O)c1cc(Nc2ncnc3nc[nH]c23)ccc1O [3-carboxy-4-hydroxyanilino, 6-(3-carboxy-4-hydroxyanilino)purine]
SENESCENT CELLS (%) HCA25 [2]: 4% | SENESCENT CELLS (%) HCA45 [2]: 2% | SENESCENT CELLS (%) HCA80 [2]: 26%

O=C(O)c1ccc(Nc2ncnc3nc[nH]c23)cc1Cl [3-chloro-4-carboxyanilino, 6-(3-chloro-4-carboxyanilino)purine]
SENESCENT CELLS (%) HCA25 [2]: 5% | SENESCENT CELLS (%) HCA45 [2]: 2% | SENESCENT CELLS (%) HCA80 [2]: 25%

COc1cccc(CNc2ncnc3nc[nH]c23)c1OC [6-(2,3-dimethoxybenzylamino)purine]
Activity (%) [10^−4 mol · l^−1 BAP = 100%] [1]: 109 (±5) % | Activity (%) [10^−4 mol · l^−1 BAP = 100%] [3]: 8.5 (±2) % | activity (%) [10^−5 mol · l^−1 BAP = 100%] [4]: 22 (±3) %

Clc1ccc(CNc2ncnc3nc[nH]c23)c(Cl)c1 [6-(2,4-dichlorobenzylamino)purine]
Activity (%) [10^−4 mol · l^−1 BAP = 100%] [1]: 0% | Activity (%) [10^−4 mol · l^−1 BAP = 100%] [3]: 11 (±3) % | activity (%) [10^−5 mol · l^−1 BAP = 100%] [4]: 19 (±8) %

COc1ccc(CNc2ncnc3nc[nH]c23)c(OC)c1 [6-(2,4-dimethoxybenzylamino)purine]
Activity (%) [10^−4 mol · l^−1 BAP = 100%] [1]: 26 (±11) % | Activity (%) [10^−4 mol · l^−1 BAP = 100%] [3]: 21 (±5) % | activity (%) [10^−5 mol · l^−1 BAP = 100%] [4]: 12 (±2) %

Brc1ccccc1CNc1ncnc2nc[nH]c12 [6-(2-bromobenzylamino)purine]
Activity (%) [10^−4 mol · l^−1 BAP = 100%] [1]: 52 (±14) % | Activity (%) [10^−4 mol · l^−1 BAP = 100%] [3]: 102 (±5) % | activity (%) [10^−5 mol · l^−1 BAP = 100%] [4]: 94 (±6) %

COc1cc(CNc2ncnc3nc[nH]c23)cc(OC)c1OC [6-(3,4,5-trimethoxybenzylamino)purine]
Activity (%) [10^−4 mol · l^−1 BAP = 100%] [1]: 25 (±2) % | Activity (%) [10^−4 mol · l^−1 BAP = 100%] [3]: 19 (±3) % | activity (%) [10^−5 mol · l^−1 BAP = 100%] [4]: 2 (±2) %

COc1ccc(CNc2ncnc3nc[nH]c23)cc1OC [6-(3,4-dimethoxybenzylamino)purine]
Activity (%) [10^−4 mol · l^−1 BAP = 100%] [1]: 43 (±17) % | activity (%) [10^−5 mol · l^−1 BAP = 100%] [4]: 27 (±6) %

c1ccc(Nc2ncnc3nc[nH]c23)cc1 [Anilino, 6-anilinopurine]
SENESCENT CELLS (%) HCA25 [2]: 3% | SENESCENT CELLS (%) HCA45 [2]: 4% | SENESCENT CELLS (%) HCA80 [2]: 27%
